# Data reported in patent US10766857B2, “Compound having BLT inhibitory activity and composition, for preventing or treating inflammatory diseases, comprising same as active ingredient” (DONGGUK UNIVERSITY INDUSTRY-ACADEMIC COOPERATION FOUNDATION, priority 2015, dated 2020).
# Target: T1, BLT2-expressing cells (CHO-BLT2 cells) (Homo sapiens, UniProt Q9NPC1)
# T1 construct: HA; expressed in transfected cells
# T1 sequence (Q9NPC1 with tags, fused parts or gaps): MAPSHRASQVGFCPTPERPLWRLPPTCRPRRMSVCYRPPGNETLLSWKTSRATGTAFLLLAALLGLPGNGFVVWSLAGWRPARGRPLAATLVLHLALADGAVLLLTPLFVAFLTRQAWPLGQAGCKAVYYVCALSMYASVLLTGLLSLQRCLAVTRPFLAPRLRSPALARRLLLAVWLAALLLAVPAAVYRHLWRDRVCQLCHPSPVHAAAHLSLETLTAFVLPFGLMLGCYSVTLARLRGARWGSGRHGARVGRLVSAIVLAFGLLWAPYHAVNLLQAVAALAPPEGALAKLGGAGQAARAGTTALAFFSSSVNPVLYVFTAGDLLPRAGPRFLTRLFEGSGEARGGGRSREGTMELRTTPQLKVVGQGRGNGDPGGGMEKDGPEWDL
# Test: MTT cell growth of LTB4-stimulated BLT2-expressing cells
# Format: cell-based
# Settings: pre-treated at 10 μM, LTB4 300 nM
# Protocol: Cell viability according to treatment of the compounds prepared in the examples were measured by a 3-(4,5-dimethylthiazol-2-yl)-2,5-diphenyltetrazolium bromide (MTT) method.
# More specifically, 1×10^4 each of the BLT2-nonexpressing cells (CHO-pcDNA3.1 cells) and BLT2-expressing cells (CHO-BLT2 cells), which were prepared in Experimental Example 1, were dispensed in a […], and cultured for 24 hours. Afterward, the culture medium was removed, a serum-free RPMI medium was added, and after two hours, the cells were pre-treated with each of the compound prepared in one of the examples (10 μM), 10 μM DMSO (compound solvent) as a control, and 10 μM 1-[5-ethyl-2-hydroxy-4-[[6-methyl-6-(1H-tetrazol-5-yl)heptyl]oxy]phenyl]-ethanone (LY255283; Cayman) as a positive control for 1 hour. Subsequently, after treatment of LTB4 (300 nM), the cells were cultured for 24 hours. 20 μL of an MTT solution (5 mg/mL, Sigma-Aldrich) was added to each well, the cells were cultured in a humid CO2 incubator at 37° C. for 4 hours, a supernatant was removed, and 200 μL of DMSO was added to each well to dissolve insoluble violet formazan crystals. Absorbance was measured using a microplate reader (Molecular Devices, Sunnyvale, Calif.) at 550 nm, and the measurement was repeated three times.
compound,measurement,value
"CCCCC(=O)N(CC#Cc1ccc(C(=O)N2CCN(C(C)C)CC2)cc1)c1ccccc1 [LMT-696, N-(3-(4-(4-isopropylpiperazine-1-carbonyl)phenyl)prop-2-ynyl)-N-phenylpentaneamide]",cell growth compared with the control DMSO,56.6%
